Test results published in ChEMBL document CHEMBL1151309, “Quanolirones I and II, two new human cytomegalovirus protease inhibitors produced by Streptomyces sp. WC76535” (J Nat Prod, 1998).

How the values were obtained:
[1] = Inhibition of GST-fused HCMV protease expressed in Escherichia coli by scintillation counting; set-up: species or system Human betaherpesvirus 5
[2] = system: M109; test: Cytotoxicity against mouse M109 cells by XTT assay; assay type: functional, cell-based

| IC50 [1] [µM] | Compound | IC50 [2] [µM] |
| --- | --- | --- |
| 14 | Cc1cc(O)c2cc3c(c(O)c2c1)C(=O)c1ccc([C@H]2C[C@@H](O[C@H]4CC[C@H](O[C@H]5C[C@@H](O)[C@H](O)[C@@H](C)O5)[C@H](C)O4)[C@H](O)[C@@H](C)O2)c(O)c1C3=O [QUANOLIRONE I] | 14 |
| 52 | Cc1cc(O)c2cc3c(c(O)c2c1)C(=O)c1ccc([C@@H]2C[C@H](O[C@H]4CC[C@H](O[C@H]5C[C@@H](O[C@H]6CC[C@H](O)[C@H](C)O6)[C@H](O)[C@H](C)O5)[C@H](C)O4)[C@@H](O)[C@@H](C)O2)c(O)c1C3=O | 12 |
| 35 | Cc1cc(O)c2cc3c(c(O)c2c1)C(=O)c1ccc([C@H]2C[C@@H](O[C@@H]4CC[C@@H](O)[C@@H](C)O4)[C@H](O)[C@@H](C)O2)c(O)c1C3=O [QUANOLIRONE II] | 89 |
